Calls of active or inactive are those of the source. The rule behind the calls is not given here.
Experiments:
MDA-MB-468 = experiment: Antiproliferative activity against human MDA-MB-468 cells incubated for 24 hrs by MTT assay; format: functional, cell-based; details: MDA-MB-468, 24 h
MDA-MB-231 [1] = experiment: cells; details: Homo sapiens, MDA-MB-231, 24 h
MDA-MB-231 [2] = experiment: Antitumor activity against human MDA-MB-231 cells xenografted in po dosed nude BALB/c mouse assessed as tumor growth inhibition at 1:1 JQ-1 : compound ratio administered once daily for 19 days and measured every 3 days; format: functional, organism-based; details: dose 50.0 mg/kg, time 19.0 day
Mus musculus = experiment: Toxicity in nude BALB/c mouse xenografted with human MDA-MB-231 cells assessed as change in body weight at 50 mg/kg, po containing 1:1 compound : JQ-1 ratio administered once daily for 19 days and measured every 3 days; format: organism-based; details: in vivo, 456 h, time 19 day

| Compound | IC50 (MDA-MB-468) | IC50 (MDA-MB-231 [1]) | Activity (MDA-MB-231 [2]) | Activity (Mus musculus) |
| --- | --- | --- | --- | --- |
| CC(=O)Nc1ccc(-c2nc3ccccc3c(=O)[nH]2)cc1 | > 50 µM | > 50 µM | – | – |
| COC(=O)COc1ccc(-c2nc3cc(OC)cc(OC)c3c(=O)[nH]2)cc1 | 13.8 µM | 22 µM | – | – |
| COc1cc(OC)c2c(=O)[nH]c(-c3ccc(OCC(=O)NC4CCN(C(=O)OC(C)(C)C)CC4)cc3)nc2c1 | 16.6 µM | 13.1 µM | – | – |
| COc1ccc2nc(-c3cc(OC)c(O)c(OC)c3)[nH]c(=O)c2c1 | 43.3 µM | > 50 µM | – | – |
| COc1cc(OC)c2c(=O)[nH]c(-c3ccc(OCC(=O)NCC4CCOCC4)cc3)nc2c1 | 26.6 µM | 21.2 µM | – | – |
| COc1ccc2oc(-c3ccccc3)cc(=S)c2c1 | > 50 µM | > 50 µM | – | – |
| COc1cc(OC)c2c(=O)[nH]c(-c3cc(C)c(OCC(=O)Nc4ccc(N5CCOCC5)cc4)c(C)c3)nc2c1 | 9.49 µM | 8.23 µM | – | – |
| COc1cc(OC)c2c(=O)[nH]c(-c3ccc(C)cc3)nc2c1 | 38.4 µM | 45.6 µM | – | – |
| COc1cc(OC)c2c(=O)[nH]c(-c3ccc(OCC(=O)Nc4cccc(N5CCN(C)CC5)c4)cc3)nc2c1 | 8.07 µM | 13.2 µM | – | – |
| COc1cc(OC)c2c(=O)[nH]c(-c3cc(Br)c(OCC(=O)NC4CCN(C)CC4)c(Br)c3)nc2c1 | 14.8 µM | 16.9 µM | – | – |
| COc1cc(OC)c2c(=O)[nH]c(-c3cc(Br)c(OCC(=O)Nc4ccc(N5CCCCC5)cc4)c(Br)c3)nc2c1 | 15.6 µM | 16.4 µM | – | – |
| O=c1cc(-c2ccccc2)oc2ccc(Br)cc12 [6-BROMOFLAVONE] | 48.2 µM | 33.5 µM | – | – |
| COc1cc(OC)c2c(=O)[nH]c(-c3cc(Br)c(OCC(=O)Nc4ccc(N5CCOCC5)c(Cl)c4)c(Br)c3)nc2c1 | 5.53 µM | 4.02 µM | – | – |
| COc1cc(OC)c2c(=O)[nH]c(-c3cc(C)c(OCC(=O)NCC4CCOCC4)c(C)c3)nc2c1 | 25.6 µM | 23.6 µM | – | – |
| COc1cc(OC)c2c(=O)[nH]c(-c3ccc(N)cc3)nc2c1 | > 50 µM | 36.5 µM | – | – |
| COc1cc(OC)c2c(=O)[nH]c(-c3ccc(O)c(Br)c3)nc2c1 | 22.3 µM | 23.2 µM | – | – |
| COc1cc(OC)c2c(=O)[nH]c(-c3cc(C)c(Br)c(C)c3)nc2c1 | 29.6 µM | 25.2 µM | – | – |
| COc1cc(OC)c2c(=O)[nH]c(-c3ccc(OCC(=O)Nc4ccccc4N4CCN(C)CC4)cc3)nc2c1 | 11.5 µM | 17.3 µM | – | – |
| Cc1ccc(-c2nc3ccccc3c(=O)[nH]2)cc1 | > 50 µM | > 50 µM | – | – |
| COc1cc(OC)c2c(=O)[nH]c(-c3ccc(OCC(=O)Nc4ccc(N5CCOCC5)c(F)c4)cc3)nc2c1 | 8.58 µM | 7.09 µM | – | – |
| COc1cc(OC)c2c(=S)cc(-c3cc(C)cc(C)c3)oc2c1 | > 50 µM | > 50 µM | – | – |
| COc1cc(-c2nc3ccccc3c(=O)[nH]2)cc(OC)c1O | > 50 µM | > 50 µM | – | – |

| Compound | IC50 (MDA-MB-468) | IC50 (MDA-MB-231 [1]) | Activity (MDA-MB-231 [2]) | Activity (Mus musculus) |
| --- | --- | --- | --- | --- |
| COc1cc(OC)c2c(=O)[nH]c(-c3cc(C)c(OCC(=O)NC4CCN(C(=O)OC(C)(C)C)CC4)c(C)c3)nc2c1 | 17.2 µM | 22.4 µM | – | – |
| CN1CCN(c2ccc(NC(=O)COc3ccc(-c4nc5cc(Cl)ccc5c(=O)[nH]4)cc3)cc2Cl)CC1 | 15.3 µM | 14.4 µM | – | – |
| COc1cc(OC)c2c(=O)[nH]c(-c3cc(C)c(OCC(=O)Nc4nc5ccccc5[nH]4)c(C)c3)nc2c1 | 30.3 µM | > 50 µM | – | – |
| COc1cc(OC)c2c(=O)[nH]c(-c3cc(C)c(OCC(=O)Nc4ccc(N5CCN(C)CC5)cc4)c(C)c3)nc2c1 | 12.6 µM | 10.8 µM | – | – |
| COc1cccc(-c2cc(=S)c3cc(OC)ccc3o2)c1 | > 50 µM | > 50 µM | – | – |
| COc1cc(OC)c2c(=O)[nH]c(-c3cc(C)c(OCC(=O)Nc4ccc(N5CCOCC5)c(F)c4)c(C)c3)nc2c1 | 9.16 µM | 10.3 µM | – | – |
| COc1cc(OC)c2c(=O)[nH]c(-c3cc(Br)c(OCC(=O)Nc4ccc(N5CCN(C)CC5)cc4)c(Br)c3)nc2c1 | 15.8 µM | 13.6 µM | – | – |
| COc1cc(OC)c2c(=O)[nH]c(-c3cc(C)c(OCC(=O)Nc4ccc(N5CCN(C)CC5)c(Cl)c4)c(C)c3)nc2c1 | 4.58 µM | 3.49 µM | – | – |
| COc1cc(OC)c2c(=O)[nH]c(-c3ccc(OCC(=O)Nc4cccc(N5CCOCC5)c4)cc3)nc2c1 | 17.8 µM | 15.3 µM | – | – |
| COc1cc(OC)c2c(=O)[nH]c(-c3ccc(OCC(=O)Nc4ccc(N5CCCCC5)cc4)cc3)nc2c1 | 11.6 µM | 10.3 µM | – | – |
| COc1cc(OC)c2c(=O)[nH]c(-c3cc(C)c(OCC(=O)Nc4cccc(N5CCOCC5)c4)c(C)c3)nc2c1 | 13.4 µM | 11.3 µM | – | – |
| COc1ccc2nc(-c3ccc(C)cc3)[nH]c(=O)c2c1 | 30.4 µM | > 50 µM | – | – |
| COc1cccc(-c2cc(=O)c3cc(OC)ccc3o2)c1 [6,3'-DIMETHOXYFLAVONE] | > 50 µM | > 50 µM | – | – |
| O=C(O)c1ccc2c(c1)nc(Nc1cccc(Cl)c1)c1ccncc12 [SILMITASERTIB] | – | – | Active | Toxic |
| COc1cc(OC)c2c(=O)[nH]c(-c3ccccc3OC)nc2c1 | 44.6 µM | > 50 µM | – | – |
| COc1cc(OC)c2c(=O)[nH]c(-c3ccc(OCC(=O)O)cc3)nc2c1 | 18.6 µM | 19.7 µM | – | – |
| COc1cc(OC)c2c(=O)[nH]c(-c3ccc(OCC(=O)Nc4ccc(N5CCOCC5)c(Cl)c4)cc3)nc2c1 | 8.29 µM | 4.52 µM | – | – |
| COc1cccc(-c2nc3cc(OC)cc(OC)c3c(=O)[nH]2)c1 | 29.3 µM | 38.3 µM | – | – |
| CN1CCN(c2ccc(NC(=O)COc3ccc(-c4nc5cc(F)ccc5c(=O)[nH]4)cc3)cc2Cl)CC1 | 7.51 µM | 6.94 µM | – | – |
| COc1cc(OC)c2c(=O)cc(-c3cc(C)cc(C)c3)oc2c1 | 39.6 µM | 47.8 µM | – | – |
| COc1cc(OC)c2c(=O)[nH]c(-c3cc(C)c(O)c(C)c3)nc2c1 | 19.3 µM | 17.5 µM | – | – |
| COc1cc(OC)c2c(=O)[nH]c(-c3cc(C)c(OCC(=O)Nc4cc(OC)c(OC)c(OC)c4)c(C)c3)nc2c1 | 16.6 µM | 24.4 µM | – | – |

| Compound | IC50 (MDA-MB-468) | IC50 (MDA-MB-231 [1]) | Activity (MDA-MB-231 [2]) | Activity (Mus musculus) |
| --- | --- | --- | --- | --- |
| COc1cc(OC)c2c(=O)[nH]c(-c3cc(C)c(OCC(=O)Nc4cccc(N5CCN(C)CC5)c4)c(C)c3)nc2c1 | 15.7 µM | 14.6 µM | – | – |
| COc1cc(OC)c2c(=O)[nH]c(-c3ccc(OCC(=O)Nc4cc(OC)c(OC)c(OC)c4)cc3)nc2c1 | 15 µM | 23.4 µM | – | – |
| COc1cc(OC)c2c(=O)[nH]c(-c3cc(C)c(OCC(=O)Nc4ccc(N5CCCCC5)cc4)c(C)c3)nc2c1 | 9.43 µM | 13.4 µM | – | – |
| COc1cc(OC)c2c(=O)[nH]c(-c3ccc(OCC(=O)Nc4ccc(N5CCN(C)CC5)c(F)c4)cc3)nc2c1 | 7.55 µM | 6.3 µM | – | – |
| COc1ccc2nc(-c3ccc(NC(C)=O)cc3)[nH]c(=O)c2c1 | 41.2 µM | > 50 µM | – | – |
| COc1cc(OC)c2c(=O)[nH]c(-c3cc(C)c(OCC(=O)Nc4ccc(N5CCOCC5)c(Cl)c4)c(C)c3)nc2c1 | 6.31 µM | 10.2 µM | – | – |
| COc1cc(OC)c2c(=O)[nH]c(-c3ccc(OCC(=O)Nc4ccc(N5CCOCC5)cc4)cc3)nc2c1 | 9.54 µM | 7.67 µM | – | – |
| COc1cc(OC)c2c(=O)[nH]c(-c3cccc(C)c3)nc2c1 | 39.4 µM | 43.9 µM | – | – |
| COc1cc(OC)c2c(=O)[nH]c(-c3ccc(C(=O)O)cc3)nc2c1 | 8.33 µM | 21.1 µM | – | – |
| COc1cc(OC)c2c(=O)[nH]c(-c3ccc(OCC(=O)Nc4ccc(N5CCN(C)CC5)cc4)cc3)nc2c1 | 8.8 µM | 6.46 µM | – | – |
| COc1ccc2oc(-c3cc(C)cc(C)c3)cc(=O)c2c1 | > 50 µM | 45.7 µM | – | – |
| CN1CCN(c2ccc(NC(=O)COc3ccc(-c4nc5ccc(Cl)cc5c(=O)[nH]4)cc3)cc2Cl)CC1 | 6.23 µM | 5.21 µM | – | – |
| Cc1ccc2nc(-c3ccc(OCC(=O)Nc4ccc(N5CCN(C)CC5)c(Cl)c4)cc3)[nH]c(=O)c2c1 | 16.2 µM | 17.4 µM | – | – |
| COc1cc(OC)c2c(=O)[nH]c(-c3ccc(OCC(=O)Nc4ccc(N5CCCC5)cc4)cc3)nc2c1 | 7.82 µM | 19.6 µM | – | – |
| COc1cc(OC)c2c(=O)[nH]c(-c3cc(Br)c(OCC(=O)Nc4ccc(N5CCOCC5)cc4)c(Br)c3)nc2c1 | 15.1 µM | 13.2 µM | – | – |
| COc1cc(OC)c2c(=O)[nH]c(-c3ccccc3OCC(=O)O)nc2c1 | 18.6 µM | 36.7 µM | – | – |
| COc1cc(OC)c2c(=O)[nH]c(-c3ccc(NC(C)=O)cc3)nc2c1 | 24.7 µM | 27.3 µM | – | – |
| COc1cc(OC)c2c(=O)[nH]c(-c3cc(C)c(OCC(=O)NC4CCN(C)CC4)c(C)c3)nc2c1 | 15.6 µM | 17.2 µM | – | – |
| COc1cc(OC)c2c(=O)[nH]c(-c3cc(C)c(OCC(=O)Nc4ccc(N5CCN(C)CC5)c(F)c4)c(C)c3)nc2c1 | 8.33 µM | 5.72 µM | – | – |
| COc1cc(OC)c2c(=O)[nH]c(-c3cccc(OCC(=O)O)c3)nc2c1 | 22.7 µM | 25.6 µM | – | – |
